ChEMBL document CHEMBL4130610, “Isolation of Flavonoids and Flavonoid Glycosides from Myrsine africana and Their Inhibitory Activities against Mushroom Tyrosinase” (J Nat Prod, 2018)

Columns and labels:
Tyrosinase [1] = target: T1, Tyrosinase (Agaricus bisporus, UniProt O42713); experiment: Inhibition of mushroom tyrosinase using L-tyrosine as substrate pretreated for 5 mins followed by substrate addition measured over 30 mins by spectrophotometric method
T1 sequence (O42713 whole entry): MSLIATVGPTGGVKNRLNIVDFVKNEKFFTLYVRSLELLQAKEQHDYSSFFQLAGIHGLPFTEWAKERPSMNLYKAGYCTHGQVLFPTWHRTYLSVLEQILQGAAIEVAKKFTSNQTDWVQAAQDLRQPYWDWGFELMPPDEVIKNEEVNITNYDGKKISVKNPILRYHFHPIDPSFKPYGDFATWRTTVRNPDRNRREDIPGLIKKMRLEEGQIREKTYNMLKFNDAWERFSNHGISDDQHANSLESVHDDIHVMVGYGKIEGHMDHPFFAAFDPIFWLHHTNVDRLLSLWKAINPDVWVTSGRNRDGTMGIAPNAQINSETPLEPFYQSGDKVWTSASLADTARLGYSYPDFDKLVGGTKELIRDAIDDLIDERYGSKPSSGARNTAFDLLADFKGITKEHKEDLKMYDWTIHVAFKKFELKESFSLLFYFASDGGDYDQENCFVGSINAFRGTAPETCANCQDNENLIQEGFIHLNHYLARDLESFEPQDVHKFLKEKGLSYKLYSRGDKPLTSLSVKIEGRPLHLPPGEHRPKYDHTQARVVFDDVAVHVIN

Tyrosinase [2] = target: T1, Tyrosinase; experiment: Inhibition of mushroom tyrosinase
Tyrosinase [3] = target: T1, Tyrosinase; experiment: Inhibition of mushroom tyrosinase using L-DOPA as substrate measured at 1 min interval by spectrophotometric method

| Structure (SMILES) | IC50 (Tyrosinase [1]) [µM] | IC50 (Tyrosinase [3]) [µM] | IC50 (Tyrosinase [2]) [µM] |
| --- | --- | --- | --- |
| COc1c(O)cc(-c2oc3cc(O)cc(O)c3c(=O)c2O[C@@H]2O[C@@H](C)[C@H](O)[C@@H](O)[C@H]2O)cc1O | 310 |  |  |
| CC(=O)O[C@@H]1[C@@H](O)[C@@H](O)[C@H](Oc2c(-c3cc(O)c(O)c(O)c3)oc3cc(O)cc(O)c3c2=O)O[C@H]1C | 280 |  |  |
| OC[C@H]1O[C@@H](Oc2c(O)cc(O)cc2O)[C@H](O)[C@@H](O)[C@@H]1O | 410 |  |  |
| C[C@@H]1O[C@@H](Oc2c(-c3cc(O)c(O)c(O)c3)oc3cc(O)cc(O)c3c2=O)[C@H](O)[C@H](O)[C@H]1O | 120 |  | 320 |
| O=c1c(O)c(-c2ccc(O)c(O)c2)oc2cc(O)cc(O)c12 [QUERCETIN] | 240 |  |  |
| C[C@@H]1O[C@@H](Oc2c(-c3ccc(O)c(O)c3)oc3cc(O)cc(O)c3c2=O)[C@H](O)[C@H](O)[C@H]1O [QUERCITRIN] | 150 |  | 100 |

The remaining compounds from weak to strong by IC50 (Tyrosinase [1]), led by results:

| IC50 (Tyrosinase [1]) [µM] | IC50 (Tyrosinase [3]) [µM] | Structure (SMILES) | IC50 (Tyrosinase [2]) [µM] |
| --- | --- | --- | --- |
| 520 |  | CC(=O)O[C@@H]1[C@@H](O)[C@@H](OC(C)=O)[C@H](Oc2c(-c3cc(O)c(O)c(O)c3)oc3cc(O)cc(O)c3c2=O)O[C@H]1C |  |
| 190 |  | COc1c(O)cc(-c2oc3cc(O)cc(O)c3c(=O)c2O[C@@H]2O[C@@H](C)[C@H](OC(C)=O)[C@@H](O)[C@H]2O)cc1O |  |
| 180 |  | CC(=O)O[C@@H]1[C@@H](OC(C)=O)[C@@H](O)[C@H](Oc2c(-c3cc(O)c(O)c(O)c3)oc3cc(O)cc(O)c3c2=O)O[C@H]1C |  |
| 130 | 70 | C[C@@H]1O[C@@H](OC[C@H]2O[C@@H](Oc3c(-c4ccc(O)c(O)c4)oc4cc(O)cc(O)c4c3=O)[C@H](O)[C@@H](O)[C@@H]2O)[C@H](O)[C@H](O)[C@H]1O [RUTIN] |  |
